For orientation: IC95 means the concentration needed for an effect of 95%. For orientation: IC50 means the midpoint of a concentration-inhibition curve. Low readings indicate inhibition by little substance, high ones a need for much substance. A word on the MIC: it is the lowest concentration found to suppress growth.

In brackets after ≈: the same amount, converted by molar mass. A value given as a limit tells only on which side of the number the result lay.

Here are results for 29 compounds from patent publication US12509462B2, “3-(phenylsulfonyl)-[1,2,3]triazolo[1,5A]quinazolin-5(4H)-one derivatives” (BIOVERSYS AG, priority 2018, dated 2025).

One data set has as its system HepG2. As to conditions: human, 48 h.
In data set [1] the test system is Staphylococcus aureus MRSA strain (USA300 isolate). The data set can be described thus: Hemolysis Assay II (exotoxin-mediated lysis of rabbit red blood cells by culture filtrate). The data set is classed as cell-based. The note with it: Erythrocyte; for minimal effective concentration / IC95: 18 h; for minimal effective concentration: absorbance <2× the average of the complete inhibition control, read-out: Hemolysis assay II MEC (minimal effective concentration); for IC95: read-out: Hemolysis assay II IC95; for IC50: 18 h culture in CA-MHB, rabbit red blood cells.

The next data set deals with MRSA. The data set can be described thus: MIC by broth microdilution in CA-MHB (CLSI). As to conditions: Staphylococcus aureus, 18 h, read-out: MIC on MRSA.

Take `Cc1ccc(S(=O)(=O)c2nnn3c2[nH]c(=O)c2cc(Cl)ccc23)c(C)c1` [Compound 1, 7-chloro-3-(2,4-dimethylphenyl)sulfonyl-4H-triazolo[1,5-a]quinazolin-5-one]: the “LD50 HepG2” value in the data set on HepG2 was “>=100 μM”. In addition, in data set [1], the minimal effective concentration was found to be 4 µg/mL, the IC95 turned out to be 2.95 µg/mL (≈ 7.59 µM) and the IC50 came out at 1.1 µg/mL (≈ 2.83 µM). For the same compound, the MIC with MRSA is no less than 100 µM.
For the compound `Cc1ccc(S(=O)(=O)c2nnn3c2[nH]c(=O)c2c(Cl)cccc23)c(C)c1` [Compound 2, 6-chloro-3-(2,4-dimethylphenyl)sulfonyl-4H-triazolo[1,5-a]quinazolin-5-one], the “LD50 HepG2” value in the data set with HepG2 is listed as “>=100 μM”. Further, in data set [1], the minimal effective concentration came out at 2 µg/mL, the IC95 amounted to 2.5 µg/mL (≈ 6.43 µM) and the IC50 came out at 0.85 µg/mL (≈ 2.19 µM). Moreover, the MIC in the data set with MRSA is no less than 100 µM.
In the case of `Cc1ccc(S(=O)(=O)c2nnn3c2[nH]c(=O)c2cccc(Cl)c23)c(C)c1` [Compound 4, 9-chloro-3-(2,4-dimethylphenyl)sulfonyl-4H-triazolo[1,5-a]quinazolin-5-one], in the data set on HepG2, the “LD50 HepG2” value came out at 50 µM. For the same compound, in data set [1], the minimal effective concentration came out at 8 µg/mL, the IC95 came out at 5.2 µg/mL (≈ 13.4 µM) and the half-inhibitory concentration (IC50) came out at 2.3 µg/mL (≈ 5.92 µM). In addition, the MIC in the data set on MRSA was no less than 100 µM.
On to `Cc1ccc(S(=O)(=O)c2nnn3c2[nH]c(=O)c2ccc(C#N)cc23)c(C)c1` [Compound 6, 3-(2,4-dimethylphenyl)sulfonyl-5-oxo-4H-triazolo[1,5-a]quinazoline-8-carbonitrile], for which, in the data set with HepG2, the “LD50 HepG2” value is “>=100 μM”. In the data set with MRSA, the MIC is no less than 100 µM.
For the compound `Cc1ccc(S(=O)(=O)c2nnn3c2[nH]c(=O)c2ccc(F)cc23)c(C)c1` [Compound 7, 3-(2,4-dimethylphenyl)sulfonyl-8-fluoro-4H-triazolo[1,5-a]quinazolin-5-one], the “LD50 HepG2” value with HepG2 is “>=100 μM”. In data set [1], the minimal effective concentration was 4 µg/mL, the IC95 is 4.8 µg/mL (≈ 12.9 µM) and the IC50 was 1.7 µg/mL (≈ 4.57 µM). In addition, the MIC with MRSA was no less than 100 µM.
In the same order, the values of `CC(C)c1ccc(S(=O)(=O)c2nnn3c2[nH]c(=O)c2c(Cl)cccc23)cc1` [Compound 8, 6-chloro-3-(4-isopropylphenyl)sulfonyl-4H-triazolo[1,5-a]quinazolin-5-one] are “>=100 μM”, 4 µg/mL, 3.8 µg/mL (≈ 9.43 µM), 2.2 µg/mL (≈ 5.46 µM) and no less than 100 µM.
As for `CC(C)c1ccc(S(=O)(=O)c2nnn3c2[nH]c(=O)c2cccc(Cl)c23)cc1` [Compound 9, 9-chloro-3-(4-isopropylphenyl)sulfonyl-4H-triazolo[1,5-a]quinazolin-5-one], the “LD50 HepG2” value in the data set on HepG2 came to 25 µM. For the same compound, in the data set on MRSA, the MIC came to 25 µM (≈ 10.1 µg/mL).
Regarding `COc1ccc2c(=O)[nH]c3c(S(=O)(=O)c4ccc(C)cc4OC)nnn3c2c1` [Compound 10, 8-methoxy-3-(2-methoxy-4-methyl-phenyl)sulfonyl-4H-triazolo[1,5-a]quinazolin-5-one], the “LD50 HepG2” value with HepG2 is “>=100 μM”. Besides, in the data set on MRSA, the MIC was no less than 100 µM.
In the same order, the values of `COc1ccc2c(=O)[nH]c3c(S(=O)(=O)c4ccc(OC(C)C)cc4C)nnn3c2c1` [Compound 11, 3-(4-isopropoxy-2-methyl-phenyl)sulfonyl-8-methoxy-4H-triazolo[1,5-a]quinazolin-5-one] are “>=100 μM” and no less than 100 µM.
In the same order, the values of `COc1ccc2c(=O)[nH]c3c(S(=O)(=O)c4ccc(Br)cc4C)nnn3c2c1` [Compound 13, 3-(4-bromo-2-methyl-phenyl)sulfonyl-8-methoxy-4H-triazolo[1,5-a]quinazolin-5-one] are “>=100 μM” and no less than 100 µM.
For `COc1ccc2c(=O)[nH]c3c(S(=O)(=O)c4ccc(C)cc4F)nnn3c2c1` [Compound 14, 3-(2-fluoro-4-methyl-phenyl)sulfonyl-8-methoxy-4H-triazolo[1,5-a]quinazolin-5-one], in that order: “>=100 μM” and no less than 100 µM.
Turning to `COc1ccc(S(=O)(=O)c2nnn3c2[nH]c(=O)c2ccc(OC)cc23)c(C)c1` [Compound 15, 8-methoxy-3-(4-methoxy-2-methyl-phenyl)sulfonyl-4H-triazolo[1,5-a]quinazolin-5-one], the “LD50 HepG2” value in the data set with HepG2 is recorded as “>=100 μM”. In addition, in the data set with MRSA, the MIC was no less than 100 µM.
In the same order, the values of `COc1ccc2c(=O)[nH]c3c(S(=O)(=O)c4ccc(NC(C)=O)cc4C)nnn3c2c1` [Compound 16, N-[4-[(8-methoxy-5-oxo-4H-triazolo[1,5-a]quinazolin-3-yl)sulfonyl]-3-methyl-phenyl]acetamide] are “>=100 μM” and no less than 100 µM.
`COc1ccc2c(=O)[nH]c3c(S(=O)(=O)c4ccc(F)cc4C)nnn3c2c1` [Compound 17, 3-(4-fluoro-2-methyl-phenyl)sulfonyl-8-methoxy-4H-triazolo[1,5-a]quinazolin-5-one]: the “LD50 HepG2” value in the data set with HepG2 is “>=100 μM”. In the data set on MRSA, the MIC was no less than 100 µM.
In the same order, the values of `COc1ccc2c(=O)[nH]c3c(S(=O)(=O)c4ccc(OC(F)(F)F)cc4C)nnn3c2c1` [Compound 19, 8-methoxy-3-[2-methyl-4-(trifluoromethoxy)phenyl]sulfonyl-4H-triazolo[1,5-a]quinazolin-5-one] are “>=100 μM” and no less than 100 µM.
In the same order, the values of `COc1ccc2c(=O)[nH]c3c(S(=O)(=O)c4ccc(Cl)cc4C)nnn3c2c1` [Compound 20, 3-(4-chloro-2-methyl-phenyl)sulfonyl-8-methoxy-4H-triazolo[1,5-a]quinazolin-5-one] are “>=100 μM” and no less than 100 µM.
For `COc1ccc2c(=O)[nH]c3c(S(=O)(=O)c4ccc(C#N)cc4C)nnn3c2c1` [Compound 22, 4-[(8-methoxy-5-oxo-4H-triazolo[1,5-a]quinazolin-3-yl)sulfonyl]-3-methyl-benzonitrile], in that order: “>=100 μM” and no less than 100 µM.
Take `COc1ccc2c(=O)[nH]c3c(S(=O)(=O)c4ccc(C(=O)O)cc4C)nnn3c2c1` [Compound 23, 4-[(8-methoxy-5-oxo-4H-triazolo[1,5-a]quinazolin-3-yl)sulfonyl]-3-methyl-benzoic acid]: the “LD50 HepG2” value with HepG2 is given as “>=100 μM”. Besides, in the data set on MRSA, the MIC was no less than 100 µM.
Turning to `CCOC(=O)c1ccc(S(=O)(=O)c2nnn3c2[nH]c(=O)c2ccc(OC)cc23)c(C)c1` [Compound 24, ethyl 4-[(8-methoxy-5-oxo-4H-triazolo[1,5-a]quinazolin-3-yl)sulfonyl]-3-methyl-benzoate], in the data set on HepG2, the “LD50 HepG2” value is “>=100 μM”. The MIC with MRSA was no less than 100 µM.
For `COc1ccc2c(=O)[nH]c3c(S(=O)(=O)c4ccc(C(F)(F)F)cc4)nnn3c2c1` [Compound 25, 8-methoxy-3-[4-(trifluoromethyl)phenyl]sulfonyl-4H-triazolo[1,5-a]quinazolin-5-one], in that order: “>=100 μM” and no less than 100 µM.
Consider `COc1ccc2c(=O)[nH]c3c(S(=O)(=O)c4ccc(C#N)cc4)nnn3c2c1` [Compound 29, 4-[(8-methoxy-5-oxo-4H-triazolo[1,5-a]quinazolin-3-yl)sulfonyl]benzonitrile], for which the “LD50 HepG2” value in the data set with HepG2 is “>=100 μM”. For the same compound, in the data set with MRSA, the MIC is no less than 100 µM.
For `COc1ccc2c(c1)c(=O)[nH]c1c(S(=O)(=O)c3ccc(C)cc3C)nnn12` [Compound 30, 3-(2,4-dimethylphenyl)sulfonyl-7-methoxy-4H-triazolo[1,5-a]quinazolin-5-one], in that order: “>=100 μM” and no less than 100 µM.
In the case of `COc1ccc2c(=O)[nH]c3c(S(=O)(=O)c4ccc(-c5nn[nH]n5)cc4C)nnn3c2c1` [Compound 31, 8-methoxy-3-[2-methyl-4-(2H-tetrazol-5-yl)phenyl]sulfonyl-4H-triazolo[1,5-a]quinazolin-5-one], in the data set on HepG2, the “LD50 HepG2” value was “>=100 μM”. For the same compound, in the data set with MRSA, the MIC is no less than 100 µM.
Regarding `COc1ccc2c(=O)[nH]c3c(S(=O)(=O)c4ccc(C(N)=O)cc4C)nnn3c2c1` [Compound 32, 4-[(8-methoxy-5-oxo-4H-triazolo[1,5-a]quinazolin-3-yl)sulfonyl]-3-methyl-benzamide], the “LD50 HepG2” value in the data set with HepG2 is “>=100 μM”. The MIC with MRSA was no less than 100 µM.
In the same order, the values of `COc1ccc2c(=O)[nH]c3c(S(=O)(=O)c4ccc(-c5nnc(C)[nH]5)cc4C)nnn3c2c1` [Compound 33, 8-methoxy-3-[2-methyl-4-(5-methyl-4H-1,2,4-triazol-3-yl)phenyl]sulfonyl-4H-triazolo[1,5-a]quinazolin-5-one] are “>=100 μM” and no less than 100 µM.
For `Cc1ccc(S(=O)(=O)c2nnn3c2[nH]c(=O)c2ccc(OCC#N)cc23)c(C)c1` [Compound 54, 2-[[3-(2,4-dimethylphenyl)sulfonyl-5-oxo-4H-triazolo[1,5-a]quinazolin-8-yl]oxy]acetonitrile], in that order: “>=100 μM” and no less than 100 µM.
For the compound `Cc1ccc(S(=O)(=O)c2nnn3c2[nH]c(=O)c2ccc(OCCCC(N)=O)cc23)c(C)c1` [Compound 56, 4-[[3-(2,4-dimethylphenyl)sulfonyl-5-oxo-4H-triazolo[1,5-a]quinazolin-8-yl]oxy]butanamide], the “LD50 HepG2” value in the data set on HepG2 is given as “>=100 μM”. Also, in the data set on MRSA, the MIC was no less than 100 µM.
For `COc1cc2c(=O)[nH]c3c(S(=O)(=O)c4ccc(C)cc4C)nnn3c2cc1O` [Compound 57, 3-(2,4-dimethylphenyl)sulfonyl-8-hydroxy-7-methoxy-4H-triazolo[1,5-a]quinazolin-5-one], in that order: “>=100 μM” and no less than 100 µM.
For `Cc1ccc(S(=O)(=O)c2nnn3c2[nH]c(=O)c2cc(O)c(OCCO)cc23)c(C)c1` [Compound 61, 3-(2,4-dimethylphenyl)sulfonyl-7-hydroxy-8-(2-hydroxyethoxy)-4H-triazolo[1,5-a]quinazolin-5-one], in that order: “>=100 μM” and no less than 100 µM.
